Experimental data as given in EP4656640A1, “IRAK4 DEGRADER AND USE THEREOF” (Shanghai Qilu Pharmaceutical Research and Development …, priority 2023, dated 2024).
Read-outs that look alike come from different tables or passages of the source.

Assays:
IL-6 secretion = experiment: Inhibition of induced IL-6 secretion in human PBMCs (CBA); assay type: cell-based; conditions: PBMC
Procedure: (§1) The effect of PROTAC small molecules on inflammatory factors in PBMCs downstream of IRAK4 induced by TLR and IL-1 was detected based on the CBA (cytometric bead array) method.
(§2) Step 2: The density of PBMCs was adjusted to 1 E6/mL, and 150 µL of PBMCs in 1640 complete medium were seeded into a 96-well plate, followed by incubation at 37°C for 1 hour.
(§3) Step 3: 50 µL of serially diluted small molecule (working concentration: 10000 nM, 1:3 dilution) drugs were inoculated into the plate in a 37°C incubator for 8 hours.
(§4) Step 4: 10 µL of stimulants were added respectively, with final concentrations of 100 ng/mL for LPS, 1 µg/mL for R848, and 100 ng/mL for IL-1β.
(§5) Step 5: CBA assay. The concentrations of IL-6 and TNF-α in the cell culture supernatant were determined using Hu IL-6 CBA Flex Set A7 and Hu TNF- CBA Flex Set D9.
(§6) Step 6: Standard samples were prepared: 2500 pg/mL, 1250 pg/mL,...0. A 1:2 serial dilution was performed to obtain 10 concentrations.
(§7) Step 7: The mixed capture beads were resuspended in capture bead diluent (1:50), and cell culture supernatant (50 µL) was added, followed by incubation at room temperature for 10 minutes.
(§8) Step 8: The detection reagent prepared with detection diluent was added, and the mixture was incubated in the dark at room temperature for 3 hours. At the end of incubation, the samples were washed once with wash buffer and resuspended for detection.
(§9) The concentrations of IL-6 and TNFα were calculated using the standard curve method. Data presentation and IC50 calculation were performed using Prism 8.0.2.

IRAK4 = molecular target: T1, IRAK4 (Homo sapiens, UniProt Q9NWZ3); experiment: Degradation of IRAK4 in monocytes of human PBMCs (flow cytometry); assay type: cell-based; parameters: endogenous in cells; conditions: human PBMC monocytes, 24 hours incubation
T1 sequence (Q9NWZ3 1-460): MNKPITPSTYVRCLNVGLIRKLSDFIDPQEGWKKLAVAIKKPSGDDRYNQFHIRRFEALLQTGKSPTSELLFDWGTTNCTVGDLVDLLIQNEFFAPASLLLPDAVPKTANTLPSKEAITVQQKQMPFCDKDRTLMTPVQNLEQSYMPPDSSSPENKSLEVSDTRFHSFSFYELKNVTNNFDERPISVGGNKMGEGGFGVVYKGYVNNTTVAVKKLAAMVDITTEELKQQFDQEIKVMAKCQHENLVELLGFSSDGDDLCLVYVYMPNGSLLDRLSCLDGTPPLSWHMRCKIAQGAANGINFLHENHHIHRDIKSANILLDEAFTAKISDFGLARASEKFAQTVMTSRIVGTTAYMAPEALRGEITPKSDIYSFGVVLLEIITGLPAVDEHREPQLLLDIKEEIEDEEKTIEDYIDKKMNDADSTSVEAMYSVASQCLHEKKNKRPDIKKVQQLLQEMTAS
Procedure: The degradation level of IRAK4 in monocytes of human peripheral blood mononuclear cells (hPBMCs) was detected by flow cytometry.
On day 1, the cells were seeded at a density of 2 × 10^5 cells per well in 100 µL in a 96-well plate.
The compounds were dissolved in DMSO to a final concentration of 10 mM, and then diluted with culture medium at a 1:5 concentration gradient to prepare 10 concentrations. The diluted solutions were added to the cells to obtain a maximum final concentration of 2 µM. Wells containing cells treated with 0.1% DMSO served as the positive control
The cells were incubated at 37°C in a 5% CO2 incubator for 24 hours.
The cells were stained for viability discrimination using the LIVE/DEAD™ Fixable Blue Dead Cell Stain Kit, and surface staining of monocytes was performed with PE Mouse Anti-Human CD14, followed by incubation at 4°C for 30 minutes.
Fix buffer I, equal in volume to the cultured cells, was added, and the cells were fixed at 37°C for 10 minutes.
150 µL of Perm III reagent was added, and the cells were incubated at 4°C for 30 minutes to permeabilize the membranes.
Flow cytometry analysis was performed using a flow cytometer.
The flow cytometry data were analyzed using Flowjo software. Data presentation and DC50 calculation were performed using Prism 8.0.2 (GraphPad).

hERG potassium channel = hERG potassium channel (Homo sapiens, UniProt Q12809); experiment: Inhibition of hERG potassium channel, whole-cell manual patch clamp in CHO-hERG cells; conditions: @ 1 µM test compound
Procedure: The effects of compounds on hERG potassium channel (human Ether-a-go-go Related Gene potassium channel) currents were tested using the whole-cell manual voltage-clamp electrophysiological method.
CHO cells stably expressing hERG were cultured in cell culture dishes with a diameter of 35 mm and incubated at 37°C in a 5% CO2 incubator. The cells were passaged at a ratio of 1:5 every 48 hours. The culture medium was formulated as follows: 90% F12 (Invitrogen), 10% fetal bovine serum (Gibco), 100 g/mL G418 (Invitrogen), and 100 g/mL Hygromycin B (Invitrogen). On the day of the experiment, the cell culture medium was aspirated, and the cells were rinsed once with extracellular solution. […] The digestion solution was aspirated, and the cells were resuspended in extracellular solution and then transferred to experimental dishes for electrophysiological recording for later use.
On the day of testing, the compounds were prepared as 10 mM stock solutions in DMSO, then diluted to 1 mM with DMSO, and further diluted 1000-fold with extracellular solution to obtain the desired final test concentration.
hERG potassium channel currents were recorded at room temperature using the whole-cell patch-clamp technique in CHO cells stably expressing the hERG channel. The glass microelectrode was prepared by pulling the glass electrode blank (BF150-86-10, Sutter) with a puller, and the tip resistance after filling with the internal electrode solution was about 2-5 MΩ. The glass microelectrode was inserted into the amplifier probe and then connected to the patch-clamp amplifier. The clamping voltage and data recording were controlled and recorded by pClamp software via a computer, with a sampling frequency of 10 kHz and a filtering frequency of 2 kHz. After obtaining the whole-cell recording, cells were clamped at -100 mV. The hERG potassium current (IhERG) was evoked by applying a 2 s depolarizing voltage step from -100 mV to +20 mV, followed by repolarization to -50 mV for 1 s before returning to -100 mV. […]
Data were analyzed and processed using pClamp, GraphPad Prism 8 and Excel software. […]

[1] = Dog pharmacokinetics, oral gavage (Experiment 3); assay type: in vivo; conditions: Beagle dogs, oral gavage 2.5 mg/kg, plasma
Procedure: Healthy Beagle dogs, male, weighing about 8-10 kg, 3 animals per group.
The animals were not fasted and had free access to water.
Venous blood (0.5-0.8 mL) was collected at 15 minutes, 30 minutes, 1 hour, 2 hours, 4 hours, 8 hours, and 24 hours after oral gavage administration, placed in K2EDTA tubes, and centrifuged at 4°C to separate plasma. The concentration of the compound in plasma was determined by liquid chromatography-tandem mass spectrometry.
The main pharmacokinetic parameters were calculated using WinNonlin. […] Table 8. Pharmacokinetic parameters of some compounds of the present disclosure administered orally to dogs

TNFα secretion = experiment: Inhibition of induced TNFα secretion in human PBMCs (CBA); assay type: cell-based; conditions: PBMC
Procedure: as §1, §2, §3, §4, §5, §6, §7, §8, §9

[2] = IL-1β 100 ng/mL, read-out: IC50 of compounds against induced secretion, IL-6, IL-1β
[3] = LPS 100 ng/mL, read-out: IC50 of compounds against induced secretion, IL-6, LPS
[4] = R848 1 µg/mL, read-out: IC50 of compounds against induced secretion, IL-6, R848
[5] = IL-1β 100 ng/mL, read-out: IC50, TNFα secretion induced by IL-1β
[6] = LPS 100 ng/mL, read-out: IC50, TNFα secretion induced by LPS
[7] = R848 1 µg/mL, read-out: IC50, TNFα secretion induced by R848

Sequence of hERG potassium channel (Q12809 whole entry): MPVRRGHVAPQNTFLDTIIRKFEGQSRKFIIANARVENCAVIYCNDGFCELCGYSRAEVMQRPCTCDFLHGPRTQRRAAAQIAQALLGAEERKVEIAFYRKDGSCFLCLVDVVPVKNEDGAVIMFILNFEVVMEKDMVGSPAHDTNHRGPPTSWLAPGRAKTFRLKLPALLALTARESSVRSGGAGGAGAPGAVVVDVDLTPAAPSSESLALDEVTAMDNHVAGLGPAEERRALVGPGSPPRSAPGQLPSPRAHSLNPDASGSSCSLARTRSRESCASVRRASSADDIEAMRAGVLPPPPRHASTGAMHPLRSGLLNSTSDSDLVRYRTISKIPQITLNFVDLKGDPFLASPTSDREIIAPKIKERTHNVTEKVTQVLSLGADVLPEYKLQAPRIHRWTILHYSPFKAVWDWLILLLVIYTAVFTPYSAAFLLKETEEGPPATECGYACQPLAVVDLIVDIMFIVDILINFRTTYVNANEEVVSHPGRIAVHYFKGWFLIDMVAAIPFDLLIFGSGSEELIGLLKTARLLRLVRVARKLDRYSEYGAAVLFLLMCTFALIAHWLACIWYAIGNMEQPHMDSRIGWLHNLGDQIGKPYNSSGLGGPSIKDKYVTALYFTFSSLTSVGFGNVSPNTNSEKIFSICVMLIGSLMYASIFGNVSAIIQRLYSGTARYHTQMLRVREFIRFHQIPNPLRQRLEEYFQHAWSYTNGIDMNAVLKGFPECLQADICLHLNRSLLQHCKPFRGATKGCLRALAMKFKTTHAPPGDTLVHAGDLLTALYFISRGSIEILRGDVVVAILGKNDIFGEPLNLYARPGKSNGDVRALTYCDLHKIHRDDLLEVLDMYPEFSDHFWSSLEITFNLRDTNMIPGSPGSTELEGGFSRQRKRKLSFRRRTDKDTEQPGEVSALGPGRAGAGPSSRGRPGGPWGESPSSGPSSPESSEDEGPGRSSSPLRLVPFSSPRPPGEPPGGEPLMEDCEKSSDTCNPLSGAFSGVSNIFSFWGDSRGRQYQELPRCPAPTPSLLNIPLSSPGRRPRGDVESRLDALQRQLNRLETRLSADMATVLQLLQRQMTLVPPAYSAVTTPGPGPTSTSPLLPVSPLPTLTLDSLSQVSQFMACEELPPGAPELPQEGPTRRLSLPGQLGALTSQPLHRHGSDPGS

SMILES	IC50 (IL-6 secretion; [2]) [nM]	IC50 (IL-6 secretion; [3]) [nM]	IC50 (IL-6 secretion; [4]) [nM]	DC50 (IRAK4) [nM]	hERG (inhibition%) (hERG potassium channel) [% @ 1 µM]	AUC(0-t) at 24 h [1] [ng·h/mL]	Cmax [1] [ng/mL]	MRT inf [1] [h]	half-life [1] [h]	IC50 (TNFα secretion; [5]) [nM]	IC50 (TNFα secretion; [6]) [nM]	IC50 (TNFα secretion; [7]) [nM]
Cn1c(=O)n(C2CCC(=O)NC2=O)c2cccc(C#CCCN3CCC4(CC3)CC(n3cc(NC(=O)c5cnn6ccc(N7C[C@H]8C[C@@H]7CO8)nc56)c(C(F)F)n3)C4)c21 (stereo partly drawn) [Example 22]	1	0.5	0.16	0.13	36	1190	100	11.2	7.6	0.16	1.2	1.4
Cn1c(=O)n(C2CCC(=O)NC2=O)c2cccc(C#CCOC34CCC(CN5CCC6(CC5)CC(n5cc(NC(=O)c7cnn8ccc(N9C[C@H]%10C[C@@H]9CO%10)nc78)c(C(F)F)n5)C6)(CC3)CC4)c21 (stereo partly drawn) [Example 52]	8.9	8.4	20.3	0.65	16	1160	78	20.2	13.4	13.9	8.5	21.5
